Laboratory results published in patent US12110286B2, “Benzimidazolone derived inhibitors of BCL6” (Cancer Research Technology Limited, priority 2017, dated 2024).

Molecular target: Trx-6×His-BCL6 (human BCL6 BTB domain covering amino-acid sequence 5-129) (Homo sapiens (Human), UniProt P41182)
Assay: HTRF in vitro assay (BCL6 / BCOR-AF633 peptide)
Format: binding
Conditions: for activity in the HTRF assay: result in words
Protocol: The % inhibition at each concentration was calculated by normalising FRET ratio to the appropriate high (DMSO with all reagents) and low (DMSO without BCL6) controls.

[1] = further generated data, 1 nM Trx-6×His-BCL6, 300 nM BCOR-AF633 peptide, 0.5 nM anti-6×His-Terbium cryptate
[2] = initially generated data, 10 nM Trx-6×His-BCL6, 300 nM BCOR-AF633 peptide, 1 nM anti-6×His-Terbium cryptate

HTRF pIC50 [1] | HTRF pIC50 [2] | activity in the HTRF assay | Structure (SMILES)
5.99 | – | – | Cn1c(=O)n(CCC(C)(C)O)c2cc(Nc3nc(N4CCCC4=O)ncc3Cl)ccc21 [Example 30b, 5-((5-chloro-2-(2-oxopyrrolidin-1-yl)pyrimidin-4-yl)amino)-3-(3-hydroxy-3-methylbutyl)-1-methyl-1,3-dihydro-2H-benzo[d]imidazol-2-one]
6.54 | – | – | Cn1c(=O)n(CCC(C)(C)O)c2cc(Nc3nc(N4CCCC(CN5CCOCC5)C4)ncc3Cl)ccc21 (centres unmarked) [Example 42d, 5-((5-chloro-2-(3-(morpholinomethyl)piperidin-1-yl)pyrimidin-4-yl)amino)-3-(3-hydroxy-3-methylbutyl)-1-methyl-1,3-dihydro-2H-benzo[d]imidazol-2-one]
5.75 | – | – | Cn1c(=O)n(CCC(C)(C)O)c2cc(Nc3ccnc(Cl)c3C#N)c(F)cc21 [Example 22f]
6.53 | – | – | C[C@@H]1CN(c2ncc(Cl)c(Nc3ccc4c(c3)n(CCC(C)(C)O)c(=O)n4CCN(C)C)n2)C[C@H](C)C1(F)F [Example 37a, 5-((5-chloro-2-((3S,5R)-4,4-difluoro-3,5-dimethylpiperidin-1-yl)pyrimidin-4-yl)amino)-1-(2-(dimethylamino)ethyl)-3-(3-hydroxy-3-methylbutyl)-1,3-dihydro-2H-benzo[d]imidazol-2-one]
5.34 | – | – | Cn1c(=O)n(C[C@@H]2CCCN2CCO)c2cc(Nc3ccnc(Cl)c3C#N)ccc21 [Example 25g, (S)-2-chloro-4-((3-((1-(2-hydroxyethyl)pyrrolidin-2-yl)methyl)-1-methyl-2-oxo-2,3-dihydro-1H-benzo[d]imidazol-5-yl)amino)nicotinonitrile: formic acid (1:1)]
6.00 | – | – | Cn1c(=O)n(CCC(C)(C)O)c2cc(Nc3nc(N4CCCC(c5ccccc5)C4)ncc3Cl)ccc21 (centres unmarked) [Example 35za, 5-((5-chloro-2-(3-phenylpiperidin-1-yl)pyrimidin-4-yl)amino)-3-(3-hydroxy-3-methylbutyl)-1-methyl-1,3-dihydro-2H-benzo[d]imidazol-2-one]
5.93 | – | – | Cn1c(=O)n(CCC(C)(C)O)c2cc(Nc3ccncc3Cl)ccc21 [Example 29e, 5-((3-chloropyridin-4-yl)amino)-3-(3-hydroxy-3-methylbutyl)-1-methyl-1,3-dihydro-2H-benzo[d]imidazol-2-one]
6.58 | – | – | Cn1ncc2c1CN(c1ncc(Cl)c(Nc3ccc4c(c3)n(CCC(C)(C)O)c(=O)n4C)n1)CC2 [Example 42f, 5-((5-chloro-2-(1-methyl-1,4,5,7-tetrahydro-6H-pyrazolo[3,4-c]pyridin-6-yl)pyrimidin-4-yl)amino)-3-(3-hydroxy-3-methylbutyl)-1-methyl-1,3-dihydro-2H-benzo[d]imidazol-2-one]
6.05 | – | – | Cn1c(=O)n(CCC(C)(C)O)c2cc(Nc3nc(N4C[C@@H]5CC[C@@H](C5)C4)ncc3Cl)ccc21 [Example 35n, 5-((2-((1R,5S)-3-azabicyclo[3.2.1]octan-3-yl)-5-chloropyrimidin-4-yl)amino)-3-(3-hydroxy-3-methylbutyl)-1-methyl-1,3-dihydro-2H-benzo[d]imidazol-2-one]
5.41 | – | – | CCNC(C)CCn1c(=O)n(C)c2ccc(Nc3ccnc(Cl)c3C#N)cc21.Cl (centres unmarked) [Example 26a, 2-chloro-4-((3-(3-(ethylamino)butyl)-1-methyl-2-oxo-2,3-dihydro-1H-benzo[d]imidazol-5-yl)amino)nicotinonitrile hydrochloride]
6.88 | – | – | Cn1c(=O)n(CCC(C)(C)O)c2cc(Nc3nc(N4CCC(N5CCOCC5)CC4)ncc3Cl)ccc21 [Example 42h, 5-((5-chloro-2-(4-morpholinopiperidin-1-yl)pyrimidin-4-yl)amino)-3-(3-hydroxy-3-methylbutyl)-1-methyl-1,3-dihydro-2H-benzo[d]imidazol-2-one]
5.27 | – | – | CCC(C)(O)CCn1c(=O)n(C)c2ccc(Nc3nc(Cl)ncc3Cl)cc21 (centres unmarked) [Example 22g, 5-((2,5-dichloropyrimidin-4-yl)amino)-3-(3-hydroxy-3-methylpentyl)-1-methyl-1,3-dihydro-2H-benzo[d]imidazol-2-one]
6.05 | – | – | Cn1c(=O)n(CCC(C)(C)O)c2cc(Nc3nc(N4CCC5(CC4)CC(F)(F)C5)ncc3Cl)ccc21 [Example 35f, 5-((5-chloro-2-(2,2-difluoro-7-azaspiro[3.5]nonan-7-yl)pyrimidin-4-yl)amino)-3-(3-hydroxy-3-methylbutyl)-1-methyl-1,3-dihydro-2H-benzo[d]imidazol-2-one]
6.49 | – | – | C[C@@H]1CN(c2ncc(Cl)c(Nc3ccc4c(c3)n(CCC(C)(C)O)c(=O)n4CCO)n2)C[C@H](C)C1(F)F [Example 40a, 5-[[5-chloro-2-[(3S,5R)-4,4-difluoro-3,5-dimethyl-1-piperidyl]pyrimidin-4-yl]amino]-1-(2-hydroxyethyl)-3-(3-hydroxy-3-methyl-butyl)benzimidazol-2-one]

Continued, compound first:

Structure (SMILES) | HTRF pIC50 [1] | HTRF pIC50 [2] | activity in the HTRF assay
Cn1c(=O)n(C)c2cc(Nc3cc(C(=O)O)nc(Cl)c3C#N)ccc21 [Example 1c, 6-chloro-5-cyano-4-[(1,3-dimethyl-2-oxo-benzimidazol-5-yl)amino]pyridine-2-carboxylic acid] | 6.08 | 6.05 | –
COc1c(Cl)ncnc1Nc1ccc2c(c1)n(C)c(=O)n2C [5-((6-chloro-5-methoxypyrimidin-4-yl)amino)-1,3-dimethyl-1,3-dihydro-2H-benzo[d]imidazol-2-one] | – | – | did not exhibit the desired activity
CC1OCCC1Cn1c(=O)n(C)c2ccc(Nc3ccnc(Cl)c3C#N)cc21 (centres unmarked) [Example 19b] | 5.55 | – | –
COCCNc1cc(Nc2ccc3c(c2)n(C)c(=O)n3C)n2nccc2n1 [5-((5-((2-methoxyethyl)amino)pyrazolo[1,5-a]pyrimidin-7-yl)amino)-1,3-dimethyl-1,3-dihydro-2H-benzo[d]imidazol-2-one] | – | – | did not exhibit the desired activity
COC(=O)C(C)CCn1c(=O)n(C)c2ccc(Nc3ccnc(Cl)c3C#N)cc21 (centres unmarked) [Example 1j, Methyl 4-[6-[(2-chloro-3-cyano-4-pyridyl)amino]-3-methyl-2-oxo-benzimidazol-1-yl]-2-methyl-butanoate] | 5.78 | 5.67 | –
Cn1c(=O)n(CCC(C)(C)O)c2cc(Nc3ncnc(Cl)c3Cl)ccc21 [Example 22l] | 5.64 | – | –
CN(C)c1ncc(Cl)c(Nc2ccc3c(c2)n(CCC(C)(C)O)c(=O)n3C)n1 [Example 15g] | 5.89 | – | –
CCOC(=O)c1cc(Nc2ccc3c(c2)n(CCC(C)C(=O)OC)c(=O)n3C)n2nccc2n1 (centres unmarked) [Example 8, Ethyl 7-[[3-(4-methoxy-3-methyl-4-oxo-butyl)-1-methyl-2-oxo-benzimidazol-5-yl]amino]pyrazolo[1,5-a]pyrimidine-5-carboxylate] | 6.01 | 5.83 | –
CCC1(Cn2c(=O)n(C)c3ccc(Nc4nc(N5C[C@@H](C)O[C@@H](C)C5)ncc4Cl)cc32)CNC(=O)O1 (some centres unmarked) [Example 20n] | 6.42 | – | –
CC(=O)NC(C)CCn1c(=O)n(C)c2ccc(Nc3ccnc(Cl)c3C#N)cc21 (centres unmarked) [Example 13, N-[3-[6-[(2-Chloro-3-cyano-4-pyridyl)amino]-3-methyl-2-oxo-benzimidazol-1-yl]-1-methyl-propyl]acetamide] | – | 5.75 | –
Cn1c(=O)n(C)c2cc(Nc3ccncc3C(F)(F)F)ccc21 [1,3-dimethyl-5-((3-(trifluoromethyl)pyridin-4-yl)amino)-1,3-dihydro-2H-benzo[d]imidazol-2-one] | – | – | did not exhibit the desired activity
COC(=O)C(C)Cn1c(=O)n(C)c2ccc(Nc3ccnc(Cl)c3C#N)cc21 (centres unmarked) [Example 3b, Methyl 3-[6-[(2-chloro-3-cyano-4-pyridyl)amino]-3-methyl-2-oxo-benzimidazol-1-yl]-2-methyl-propanoate] | 5.35 | 5.39 | –
C[C@@H]1CN(c2cc(Nc3ccc4c(c3)n(CCC(C)(C)O)c(=O)n4C)c(Cl)cn2)C[C@H](C)O1 [Example 36b, 5-((5-chloro-2-((2R,6S)-2,6-dimethylmorpholino)pyridin-4-yl)amino)-3-(3-hydroxy-3-methylbutyl)-1-methyl-1,3-dihydro-2H-benzo[d]imidazol-2-one] | 5.99 | – | –
CCC1(Cn2c(=O)n(C)c3ccc(Nc4nc(-n5ccc(C(F)(F)F)n5)ncc4Cl)cc32)CN(C)C(=O)O1 (centres unmarked) [Example 20m] | 5.97 | – | –
Cn1c(=O)n(CC(O)Cn2cccn2)c2cc(Nc3ccnc(Cl)c3C#N)ccc21 (centres unmarked) [Example 10f] | 5.48 | 5.49 | –
Cn1c(=O)n(CCC(C)(C)O)c2cc(Nc3ccncc3Cl)ncc21 [6-((3-chloropyridin-4-yl)amino)-1-(3-hydroxy-3-methylbutyl)-3-methyl-1,3-dihydro-2H-imidazo[4,5-c]pyridin-2-one] | – | – | did not exhibit the desired activity
COC(=O)C(O)CCn1c(=O)n(C)c2ccc(Nc3ccnc(Cl)c3C#N)cc21 (centres unmarked) [Example 9, Methyl 4-[6-[(2-chloro-3-cyano-4-pyridyl)amino]-3-methyl-2-oxo-benzimidazol-1-yl]-2-hydroxy-butanoate] | 5.97 | 5.83 | –
Cn1c(=O)n(CCC(C)(C)O)c2cc(Nc3ccnc(Cl)c3C(F)(F)F)ccc21 [5-((2-chloro-3-(trifluoromethyl)pyridin-4-yl)amino)-3-(3-hydroxy-3-methylbutyl)-1-methyl-1,3-dihydro-2H-benzo[d]imidazol-2-one] | – | – | did not exhibit the desired activity
Cn1c(=O)n(CCC(C)(C)O)c2cc(Nc3ccnc(Cl)c3C#N)ccc21 [Example 1i, 2-chloro-4-[[3-(3-hydroxy-3-methyl-butyl)-1-methyl-2-oxo-benzimidazol-5-yl]amino]pyridine-3-carbonitrile] | 6.08 | 5.77 | –
CCC1(Cn2c(=O)n(C)c3ccc(Nc4ccnc(Cl)c4C#N)cc32)CNC(=O)O1 (centres unmarked) [Example 22c] | 5.76 | – | –
